In US9156815B2, “Salt of (R)-3-(6-amino-pyridin-3-yl)-2-(1-Cyclohexyl-1H-imidazol-4-yl) ethyl propionate” (Sanofi, priority 2011, dated 2015):
Structures can show the parent of a compound that is named as a salt.

Assays:
Type in all cases: physicochemical
[1] = Chiral stability, storage for 14 days (chiral HPLC)
Experimental: (§1) Representative samples of the crystalline salt of (R)-3-(6-aminopyridin-3-yl)-2-(1-cyclohexyl-1H-imidazol-4-yl)propionic acid ethyl ester with naphthalene-1,5-disulfonic acid prepared as in example 1 are stored for 14 days under the conditions (A), (B), (C) and (D) described in example 4:
The measurements were carried out using chromatography on chiral phase as described in example 1.
Chiral HPLC: (Chiralcel OD-H/84 (250×4.6 mm), heptane:Isopropanol:Acetonitrile 15:1:0.5+0.1% diethylamine (DEA), 30° C., 1 ml/min): Rt=27.01 min.

[2] = Physical stability, storage for 14 days (XRPD, thermogravimetry); settings: stored 14 days under conditions (A) to (D)
Experimental: as §1, with “and (D): • (A) 50° C. • (B) 50° C. and 80% relative atmospheric humidity • (C) 80° C. •” for “and”, “80° C. and 80% relative atmospheric humidity Results:” for “described in example 4:”
Only a slight loss in mass during the thermogravimetric measurements (apparatus TA Instruments: TGA Q500, atmospheric nitrogen; rate 10° C./min) is observed, which is attributed to the release of water from the crystals.

[3] = Salt screening of the API with acids and solvents, XRPD measurement; design: key: NKP means no crystalline phase; KFA means free acid crystallizes; settings: API + acid
Experimental: The molar ratio between the H^+ concentration of the acid and of the API is 2 (for details see table 2). In each cavity of the microtiter plate, 68 microliters of the dissolved API are mixed with 40 microliters of the 0.1 normal acid solutions.
68 microliters of the dissolved API are pipetted into each cavity of a 96 microtiter plate. Then, in each case 40 microliters of the acids dissolved as in table 2 are added according to the scheme as detailed in table 3. The microtiter plate is shaken at room temperature for 20 min so that an equilibrium is formed in the cavities. Evaporation of the solvents at room temperature in a stream of nitrogen for 2 hours. Then, in each case 40 microliters of the solvents according to the scheme as detailed in table 3 are added. The microtiter plate is shaken at room temperature for 20 min so that an equilibrium is formed in the cavities. Evaporation of the solvent then takes place at room temperature in a stream of nitrogen for 2 hours. Finally, XRPD measurement is carried out.

CCOC(=O)[C@H](Cc1ccc(N)nc1)c1cn(C2CCCCC2)cn1 [Example 1, crystalline salt of (R)-3-(6-aminopyridin-3-yl)-2-(1-cyclohexyl-1H-imidazol-4-yl)propionic acid ethyl ester with naphthalene-1,5-disulfonic acid]
0.2%: increase of the (S) enantiomer ([1]; 14 days, 50° C. (A)) | increase of the (S) enantiomer ([1]; 14 days, 50° C. and 80% relative atmospheric humidity (B))
close together: XRPD measurements at the start and after 14 days [2]
no change: change of enantiomeric purity ([1]; 14 days, 80° C. (C))
99.0%: Enantiomeric purity ([1]; 14 days, storage condition (C) 80° C.) | Enantiomeric purity ([1]; at the start of the measurement)
98.8%: Enantiomeric purity ([1]; 14 days, storage condition (A) 50° C.) | Enantiomeric purity ([1]; 14 days, storage condition (B) 50° C. and 80% relative atmospheric humidity)
2.7%: increase of the (S) enantiomer ([1]; 14 days, 80° C. and 80% relative atmospheric humidity (D))
96.3%: Enantiomeric purity ([1]; 14 days, storage condition (D) 80° C. and 80% relative atmospheric humidity)

Adipic acid
NKP: XRPD result of salt screening ([3]; solvent Water:methanol 1:1)
KFA: XRPD result of salt screening ([3]; solvent 2-Methyl-1-propanol) | XRPD result of salt screening ([3]; solvent 2-Propanol) | XRPD result of salt screening ([3]; solvent Butyl acetate) | XRPD result of salt screening ([3]; solvent Ethanol) | XRPD result of salt screening ([3]; solvent Methanol) | XRPD result of salt screening ([3]; solvent Methyl ethyl ketone) | XRPD result of salt screening ([3]; solvent Water)

Benzoic acid
NKP: XRPD result of salt screening ([3]; solvent Water:methanol 1:1)
KFA: XRPD result of salt screening ([3]; solvent 2-Methyl-1-propanol) | XRPD result of salt screening ([3]; solvent 2-Propanol) | XRPD result of salt screening ([3]; solvent Butyl acetate) | XRPD result of salt screening ([3]; solvent Ethanol) | XRPD result of salt screening ([3]; solvent Methanol) | XRPD result of salt screening ([3]; solvent Methyl ethyl ketone) | XRPD result of salt screening ([3]; solvent Water)

Citric acid
NKP: XRPD result of salt screening ([3]; solvent 2-Methyl-1-propanol) | XRPD result of salt screening ([3]; solvent 2-Propanol) | XRPD result of salt screening ([3]; solvent Butyl acetate) | XRPD result of salt screening ([3]; solvent Ethanol) | XRPD result of salt screening ([3]; solvent Methanol) | XRPD result of salt screening ([3]; solvent Methyl ethyl ketone) | XRPD result of salt screening ([3]; solvent Water) | XRPD result of salt screening ([3]; solvent Water:methanol 1:1)

Fumaric acid
NKP: XRPD result of salt screening ([3]; solvent 2-Methyl-1-propanol) | XRPD result of salt screening ([3]; solvent 2-Propanol) | XRPD result of salt screening ([3]; solvent Butyl acetate) | XRPD result of salt screening ([3]; solvent Ethanol) | XRPD result of salt screening ([3]; solvent Methanol) | XRPD result of salt screening ([3]; solvent Methyl ethyl ketone) | XRPD result of salt screening ([3]; solvent Water) | XRPD result of salt screening ([3]; solvent Water:methanol 1:1)

Glucuronic acid
NKP: XRPD result of salt screening ([3]; solvent 2-Methyl-1-propanol) | XRPD result of salt screening ([3]; solvent 2-Propanol) | XRPD result of salt screening ([3]; solvent Butyl acetate) | XRPD result of salt screening ([3]; solvent Ethanol) | XRPD result of salt screening ([3]; solvent Methanol) | XRPD result of salt screening ([3]; solvent Methyl ethyl ketone) | XRPD result of salt screening ([3]; solvent Water) | XRPD result of salt screening ([3]; solvent Water:methanol 1:1)

Malonic acid
NKP: XRPD result of salt screening ([3]; solvent 2-Methyl-1-propanol) | XRPD result of salt screening ([3]; solvent 2-Propanol) | XRPD result of salt screening ([3]; solvent Butyl acetate) | XRPD result of salt screening ([3]; solvent Ethanol) | XRPD result of salt screening ([3]; solvent Methanol) | XRPD result of salt screening ([3]; solvent Methyl ethyl ketone) | XRPD result of salt screening ([3]; solvent Water) | XRPD result of salt screening ([3]; solvent Water:methanol 1:1)

Sulfuric acid
NKP: XRPD result of salt screening ([3]; solvent 2-Methyl-1-propanol) | XRPD result of salt screening ([3]; solvent 2-Propanol) | XRPD result of salt screening ([3]; solvent Butyl acetate) | XRPD result of salt screening ([3]; solvent Ethanol) | XRPD result of salt screening ([3]; solvent Methanol) | XRPD result of salt screening ([3]; solvent Methyl ethyl ketone) | XRPD result of salt screening ([3]; solvent Water) | XRPD result of salt screening ([3]; solvent Water:methanol 1:1)

Tartaric acid
NKP: XRPD result of salt screening ([3]; solvent 2-Methyl-1-propanol) | XRPD result of salt screening ([3]; solvent 2-Propanol) | XRPD result of salt screening ([3]; solvent Butyl acetate) | XRPD result of salt screening ([3]; solvent Ethanol) | XRPD result of salt screening ([3]; solvent Methanol) | XRPD result of salt screening ([3]; solvent Methyl ethyl ketone) | XRPD result of salt screening ([3]; solvent Water) | XRPD result of salt screening ([3]; solvent Water:methanol 1:1)
